{"source": "patent US20090239926A1", "about": "“METHODS FOR THE TREATMENT OF PSORIASIS OR PSORIATIC ARTHRITIS USING CYCLOPROPYL-N-CARBOXAMIDE” (priority 2008, published 2009)", "system": "mAB/LPS-induced experimental arthritis in male BALB/c mice", "test": "mAb/LPS-induced mice arthritis model", "type": "in vivo", "conditions": "Enbrel 5 mg/kg/day IP", "method": "Treatment Regimen: Compound A was administered by oral gavage (PO), using a suitable stainless steel feeding needle. Enbrel (Reference Item) was administrated by intraperitoneal (IP) injections. Compound A was first administered on study Day 3 (one hour prior to the single LPS injection) and thereafter on Days 4, 5, 6, 7, 8, 9, 10, 11, 12 and 13 (total of 11 successive treatment days) at 1, 5 and 25 mg/kg once daily. Compound A treated groups comprised n=8 BALB/c male mice per dosing group. In addition, two equally sized groups were treated with either Enbrel (5 mg/kg/day, Reference Item), or a solution of 0.5% Na CMC/0.25% Tween 80 (PO, 5 ml/kg, Vehicle Control).\nArthritis Reactions: Both hind paws (left and right) of each animal were examined for signs of arthritogenic responses prior to arthritis induction (Day 0) and thereafter on study days 4, 5, 6, 7, 9, 11 & 14 as selected by the Sponsor. Arthritis reactions were scored and recorded according to a 0-4 scale in ascending order of severity (based on Morwell MD Biosciences Inc. brochure) as shown in Table 1.\nMeasurements of Experimental Arthritis: Hind paw thickness was determined on eight days using a Mitutoyo Electronic Digital Caliper (on Days 0, 4, 5, 6, 7, 9, 11 and 14) and presented as mean group values of the average for both left and right hind paws.", "key": {"[1]": {"conditions": "Day 0 (prior to arthritis induction)"}}}
{"substance": "Enbrel", "values": [{"measurement": "Arthritis Scoring, mean of both hind paws (0-4 scale)", "setting": "[1]", "value": 0}, {"measurement": "Hind Paws Thickness, group mean", "setting": "[1]", "value": 2.2, "unit": "mm"}, {"measurement": "Arthritis Scoring, mean of both hind paws (0-4 scale)", "setting": "Day 4", "value": 0}, {"measurement": "Hind Paws Thickness, group mean", "setting": "Day 4", "value": 2.2, "unit": "mm"}, {"measurement": "Percentage Change in Hind Paw Thickness vs. Study Commencement (Day 0), group mean", "setting": "Day 4", "value": 0, "unit": "%"}, {"measurement": "Arthritis Scoring, mean of both hind paws (0-4 scale)", "setting": "Day 5", "value": 1}, {"measurement": "Hind Paws Thickness, group mean", "setting": "Day 5", "value": 2.3, "unit": "mm"}, {"measurement": "Percentage Change in Hind Paw Thickness vs. Study Commencement (Day 0), group mean", "setting": "Day 5", "value": 6, "unit": "%"}, {"measurement": "Arthritis Scoring, mean of both hind paws (0-4 scale)", "setting": "Day 6", "value": 1}, {"measurement": "Hind Paws Thickness, group mean", "setting": "Day 6", "value": "2.5*↓ mm"}, {"measurement": "Percentage Change in Hind Paw Thickness vs. Study Commencement (Day 0), group mean", "setting": "Day 6", "value": 13, "unit": "%"}, {"measurement": "Arthritis Scoring, mean of both hind paws (0-4 scale)", "setting": "Day 7", "value": "1**↓"}, {"measurement": "Hind Paws Thickness, group mean", "setting": "Day 7", "value": "2.5**↓ mm"}, {"measurement": "Percentage Change in Hind Paw Thickness vs. Study Commencement (Day 0), group mean", "setting": "Day 7", "value": "12**↓ %"}, {"measurement": "Arthritis Scoring, mean of both hind paws (0-4 scale)", "setting": "Day 9", "value": "1***↓"}, {"measurement": "Hind Paws Thickness, group mean", "setting": "Day 9", "value": "2.3**↓ mm"}, {"measurement": "Percentage Change in Hind Paw Thickness vs. Study Commencement (Day 0), group mean", "setting": "Day 9", "value": "7**↓ %"}, {"measurement": "Arthritis Scoring, mean of both hind paws (0-4 scale)", "setting": "Day 11", "value": "0***↓"}, {"measurement": "Hind Paws Thickness, group mean", "setting": "Day 11", "value": "2.3**↓ mm"}, {"measurement": "Percentage Change in Hind Paw Thickness vs. Study Commencement (Day 0), group mean", "setting": "Day 11", "value": "4**↓ %"}, {"measurement": "Arthritis Scoring, mean of both hind paws (0-4 scale)", "setting": "Day 14", "value": "0**↓"}, {"measurement": "Hind Paws Thickness, group mean", "setting": "Day 14", "value": "2.3**↓ mm"}, {"measurement": "Percentage Change in Hind Paw Thickness vs. Study Commencement (Day 0), group mean", "setting": "Day 14", "value": "4**↓ %"}]}
